Measurements: US12649733B2, “3,6-diamino-pyridazin-3-yl derivatives, pharmaceutical compositions containing them and their uses as pro-apoptotic agents” (LES LABORATOIRES SERVIER, priority 2019, dated 2026)

Experiments:
MOLT-4 cells = assay: MOLT-4 cell viability, MTT assay; format: cell-based; conditions: Homo sapiens, MOLT-4, 48 h, 48 h exposure
How it was run: (§1)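 Cells grown in RPMI 1640 with 10% heat-inactivated FBS at 37° C, 5% CO2, exposed 48 h to nine 3.16-fold serial compound dilutions in triplicate. MTT added for 4 h, SDS/HCl solubilisation overnight, absorbance at 540 nm; IC50 by four-parameter fit.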

Bcl-xL protein = target: T1, Bcl-xL protein (Homo sapiens, UniProt Q07817, N197C); assay: Fluorescence quenching assay (PUMA peptide displacement); format: binding; conditions: 1 nM protein, 400 nM peptide, 2 hours at 23° C.; KI determined from IC50
T1 construct: (2-197)[N197C]; His-His (two His8 stretches joined by a Gly/Ala/Ser/Thr linker)
T1 sequence (Q07817 2-197 N197C): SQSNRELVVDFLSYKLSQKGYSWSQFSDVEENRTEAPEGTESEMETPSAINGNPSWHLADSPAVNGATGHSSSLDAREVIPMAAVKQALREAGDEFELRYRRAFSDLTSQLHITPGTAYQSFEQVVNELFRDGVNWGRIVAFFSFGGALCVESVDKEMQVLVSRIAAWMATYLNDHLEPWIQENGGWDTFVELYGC
How it was run: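 Displacement of a TQ5WS-quencher-labelled PUMA peptide (400 nM) from Cy5-labelled His-tagged Bcl-xL 2-197 N197C (1 nM) raises fluorescence. An 11-point compound dilution was incubated 2 h at 23 °C in HEPES 10 mM, NaCl 150 mM, 0.05% Tween 20, pH 7.4, 5% DMSO. Fluorescence was read at Ex 620/Em 680 nm, and KI was derived from IC50.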

H146 cells = assay: H146 cell viability, MTT assay; format: cell-based; conditions: 48 h exposure
How it was run: as §1

Row | Compound | IC50 (MOLT-4 cells) [nM] | Ki (Bcl-xL protein) [nM] | IC50 (H146 cells; Homo sapiens, NCI-H146, 48 h) [nM] | IC50 (H146 cells) [nM]
1 | CNCC#Cc1ccc(OCCCc2sc(N(CCCCC[N+](C)(C)CC(=O)O)c3cc(C)c(Nc4nc5ccccc5s4)nn3)nc2C(=O)[O-])c(F)c1 [Example 231, 2-[[6-(1,3-Benzothiazol-2-ylamino)-5-methyl-pyridazin-3-yl]-[5-[carboxymethyl(dimethyl)ammonio]pentyl]amino]-5-[3-[2-fluoro-4-[3-(methylamino)prop-1-ynyl]phenoxy]propyl]thiazole-4-carboxylate] | 1190 | 0.0013 | 1610 | 
2 | Cc1cc(N(C)c2nc(C(=O)O)c(CCCOc3ccc(C#CCN4CCCC4)cc3F)s2)nnc1Nc1nc2ccccc2s1 [Example 203, 2-[[6-(1,3-Benzothiazol-2-ylamino)-5-methyl-pyridazin-3-yl]-methyl-amino]-5-[3-[2-fluoro-4-(3-pyrrolidin-1-ylprop-1-ynyl)phenoxy]propyl]thiazole-4-carboxylic acid] | 0.753 | 0.0022 | 3.9 | 
3 | CNCC#Cc1ccc(OCCCc2sc(N(CCCCC[N+](C)(C)CCCO)c3cc(C)c(Nc4nc5ccccc5s4)nn3)nc2C(=O)[O-])c(F)c1 [Example 230, 2-[[6-(1,3-Benzothiazol-2-ylamino)-5-methyl-pyridazin-3-yl]-[5-[3-hydroxypropyl(dimethyl)ammonio]pentyl]amino]-5-[3-[2-fluoro-4-[3-(methylamino)prop-1-ynyl]phenoxy]propyl]thiazole-4-carboxylate] | 2180 | 0.0014 | 1380 | 
4 | Cc1cc(N(CCCCN2CCNCC2)c2nc(C(=O)O)c(CCCOc3ccc(C#CCN(C)C)cc3F)s2)nnc1Nc1nc2ccccc2s1 [Example 184, 2-[[6-(1,3-Benzothiazol-2-ylamino)-5-methyl-pyridazin-3-yl]-(4-piperazin-1-ylbutyl)amino]-5-[3-[4-[3-(dimethylamino)prop-1-ynyl]-2-fluoro-phenoxy]propyl]thiazole-4-carboxylic acid] | 184 | 0.0036 | 107 | 
5 | Cc1cc(N(CCCCCNCCCN2CCN(C)CC2)c2nc(C(=O)O)c(CCCOc3ccc(C#CCN(C)C)cc3F)s2)nnc1Nc1nc2ccccc2s1 [Example 195, 2-[[6-(1,3-Benzothiazol-2-ylamino)-5-methyl-pyridazin-3-yl]-[5-[3-(4-methylpiperazin-1-yl)propylamino]pentyl]amino]-5-[3-[4-[3-(dimethylamino)prop-1-ynyl]-2-fluoro-phenoxy]propyl]thiazole-4-carboxylic acid] | 529 | 0.0018 | 525 | 
6 | CNCC#Cc1ccc(OCCCc2sc(N(CCC[N+](C)(C)CCCS(=O)(=O)[O-])c3cc(C)c(Nc4nc5ccccc5s4)nn3)nc2C(=O)O)c(F)c1 [Example 235, 3-[3-[[6-(1,3-Benzothiazol-2-ylamino)-5-methyl-pyridazin-3-yl]-[4-carboxy-5-[3-[2-fluoro-4-[3-(methylamino)prop-1-ynyl]phenoxy]propyl]thiazol-2-yl]amino]propyl-dimethyl-ammonio]propane-1-sulfonate] | 413 | 0.0011 | 413 | 
7 | Cc1cc(N(CCCCCN2CCC(N)CC2)c2nc(C(=O)O)c(CCCOc3ccc(C#CCN(C)C)cc3F)s2)nnc1Nc1nc2ccccc2s1 [Example 177, 2-[5-(4-Amino-1-piperidyl)pentyl-[6-(1,3-benzothiazol-2-ylamino)-5-methyl-pyridazin-3-yl]amino]-5-[3-[4-[3-(dimethylamino)prop-1-ynyl]-2-fluoro-phenoxy]propyl]thiazole-4-carboxylic acid] | 225 | 0.003 | 36.3 | 
8 | CCN(CC)CCNCCCCCN(c1cc(C)c(Nc2nc3ccccc3s2)nn1)c1nc(C(=O)O)c(CCCOc2ccc(C#CCN(C)C)cc2F)s1 [Example 182, 2-[[6-(1,3-Benzothiazol-2-ylamino)-5-methyl-pyridazin-3-yl]-[5-[2-(diethylamino)ethylamino]pentyl]amino]-5-[3-[4-[3-(dimethylamino)prop-1-ynyl]-2-fluoro-phenoxy]propyl]thiazole-4-carboxylic acid] | 129 | 0.0074 | 199 | 

More lines, in order of falling IC50 (MOLT-4 cells), values ahead:

Row | IC50 (MOLT-4 cells) [nM] | Ki (Bcl-xL protein) [nM] | IC50 (H146 cells; Homo sapiens, NCI-H146, 48 h) [nM] | IC50 (H146 cells) [nM] | Compound
9 | 3280 | 0.0037 | 1080 |  | CNCC#Cc1ccc(OCCCc2sc(N(CCN(C)C)c3cc(C)c(Nc4nc5ccccc5s4)nn3)nc2C(=O)O)c(F)c1 [Example 207, 2-[[6-(1,3-Benzothiazol-2-ylamino)-5-methyl-pyridazin-3-yl]-[2-(dimethylamino)ethyl]amino]-5-[3-[2-fluoro-4-[3-(methylamino)prop-1-ynyl]phenoxy]propyl]thiazole-4-carboxylic acid]
10 | 417 | 0.0019 | 75.3 |  | CNCC#Cc1ccc(OCCCc2sc(N(CC[N+](C)(C)C)c3cc(C)c(Nc4nc5ccccc5s4)nn3)nc2C(=O)[O-])c(F)c1 [Example 201, 2-[[6-(1,3-Benzothiazol-2-ylamino)-5-methyl-pyridazin-3-yl]-[2-(trimethylammonio)ethyl]amino]-5-[3-[2-fluoro-4-[3-(methylamino)prop-1-ynyl]phenoxy]propyl]thiazole-4-carboxylate]
11 | 146 | 0.004 | 222 |  | Cc1cc(N(CCCC(O)C[N+]23CCN(CC2)CC3)c2nc(C(=O)[O-])c(CCCOc3ccc(C#CCN(C)C)cc3F)s2)nnc1Nc1nc2ccccc2s1 (stereo not drawn) [Example 216, 2-[[5-(1-aza-4-azoniabicyclo[2.2.2]octan-4-yl)-4-hydroxy-pentyl]-[6-(1,3-benzothiazol-2-ylamino)-5-methyl-pyridazin-3-yl]amino]-5-[3-[4-[3-(dimethylamino)prop-1-ynyl]-2-fluoro-phenoxy]propyl]thiazole-4-carboxylate]
12 | 129 | 0.0032 | 27 |  | CNCCCCCN(c1cc(C)c(Nc2nc3ccccc3s2)nn1)c1nc(C(=O)O)c(CCCOc2ccc(C#CCN(C)C)cc2F)s1 [Example 194, 2-[[6-(1,3-Benzothiazol-2-ylamino)-5-methyl-pyridazin-3-yl]-[5-(methylamino)pentyl]amino]-5-[3-[4-[3-(dimethylamino)prop-1-ynyl]-2-fluoro-phenoxy]propyl]thiazole-4-carboxylic acid]
13 | 103 | 0.0025 | 23400 |  | Cc1cc(N(CCCCCNCCN2CCCCC2)c2nc(C(=O)O)c(CCCOc3ccc(C#CCN(C)C)cc3F)s2)nnc1Nc1nc2ccccc2s1 [Example 187, 2-[[6-(1,3-Benzothiazol-2-ylamino)-5-methyl-pyridazin-3-yl]-[5-[2-(1-piperidyl)ethylamino]pentyl]amino]-5-[3-[4-[3-(dimethylamino)prop-1-ynyl]-2-fluoro-phenoxy]propyl]thiazole-4-carboxylic acid]
14 | 93.6 | 0.0015 | 72.8 |  | CNCC#Cc1ccc(OCCCc2sc(N(CCCCCN(C)C)c3cc(C)c(Nc4nc5ccccc5s4)nn3)nc2C(=O)O)c(F)c1 [Example 213, 2-[[6-(1,3-Benzothiazol-2-ylamino)-5-methyl-pyridazin-3-yl]-[5-(dimethylamino)pentyl]amino]-5-[3-[2-fluoro-4-[3-(methylamino)prop-1-ynyl]phenoxy]propyl]thiazole-4-carboxylic acid]
15 | 85.3 | 0.001 | 16.9 |  | CNCCCc1ccc(OCCCc2sc(N(CCCCO)c3cc(C)c(Nc4nc5ccccc5s4)nn3)nc2C(=O)O)c(F)c1 [Example 186, 2-[[6-(1,3-Benzothiazol-2-ylamino)-5-methyl-pyridazin-3-yl]-(4-hydroxybutyl)amino]-5-[3-[2-fluoro-4-[3-(methylamino)propyl]phenoxy]propyl]thiazole-4-carboxylic acid]
16 | 54.9 | 0.0032 | 78.3 |  | CNCCN(C)CCCCCN(c1cc(C)c(Nc2nc3ccccc3s2)nn1)c1nc(C(=O)O)c(CCCOc2ccc(C#CCN(C)C)cc2F)s1 [Example 190, 2-[[6-(1,3-Benzothiazol-2-ylamino)-5-methyl-pyridazin-3-yl]-[5-[methyl-[2-(methylamino)ethyl]amino]pentyl]amino]-5-[3-[4-[3-(dimethylamino)prop-1-ynyl]-2-fluoro-phenoxy]propyl]thiazole-4-carboxylic acid]
17 | 3.13 | 0.0018 | 7.46 |  | Cc1cc(N(C)c2nc(C(=O)O)c(CCCOc3ccc(C#CCNCCN(C)C)cc3F)s2)nnc1Nc1nc2ccccc2s1 [Example 223, 2-[[6-(1,3-Benzothiazol-2-ylamino)-5-methyl-pyridazin-3-yl]-methyl-amino]-5-[3-[4-[3-[2-(dimethylamino)ethylamino]prop-1-ynyl]-2-fluoro-phenoxy]propyl]thiazole-4-carboxylic acid]
18 | 1.48 | 0.009 |  | 15 | Cc1cc(N(C)c2nc(C(=O)O)c(CCCOc3ccc(C#CC(C)N4CCOCC4)cc3F)s2)nnc1Nc1nc2ccccc2s1 (single isomer, unassigned) [Example 206, 2-[[6-(1,3-Benzothiazol-2-ylamino)-5-methyl-pyridazin-3-yl]-methyl-amino]-5-[3-[2-fluoro-4-((3R or 3S)-morpholinobut-1-ynyl)phenoxy]propyl]thiazole-4-carboxylic acid]
